In ChEMBL document CHEMBL6153036, “Genome-informed Discovery of Monchicamides A-K: Cyanobactins from the Microcoleaceae Cyanobacterium LEGE 16532” (J Nat Prod, 2025):
Calls of active or inactive are those of the source. Where a SMILES comes first, the peptide text is derived from it. [ ]: non-standard residue; d: D form. The star is where a group is joined. ξ: configuration not given here. ξIle = CC[C@H](C)C(N)C(=O)O; Prenyl = CC(C)=CC*

How the values were obtained:
Acanthamoeba polyphaga = assay: Antiamoebic activity against Acanthamoeba polyphaga assessed as cell viability at 10 uM incubated for 24 hrs by Alamar blue staining based assay; format: functional, organism-based
Candida albicans = assay: Antifungal activity against Candida albicans ATCC 10231 assessed as fungal growth inhibition at 1 mg/mL preincubated for 30 mins at room temperature followed by incubation at 37 degreeC for 24 hrs by agar disc-diffusion method; format: functional, organism-based; conditions: time 24.5 hrs
Staphylococcus aureus = assay: Antibacterial activity against Staphylococcus aureus ATCC 29213 assessed as bacterial growth inhibition at 1 mg/mL preincubated for 30 mins at room temperature followed by incubation at 37 degreeC for 24 hrs by agar disc-diffusion method; format: functional, organism-based; conditions: time 24.5 hrs
Bacillus subtilis = assay: Antibacterial activity against Bacillus subtilis ATCC 6633 assessed as bacterial growth inhibition at 1 mg/mL preincubated for 30 mins at room temperature followed by incubation at 37 degreeC for 24 hrs by agar disc-diffusion method; format: functional, organism-based; conditions: time 24.5 hrs
SH-SY5Y = assay: Cytotoxicity against human SH-SY5Y cells assessed as cell viability at 10 ug/mL incubated for 48 hrs by MTT assay; format: functional, cell-based; conditions: dose 10.0 µg/ml
Salmonella typhimurium = assay: Antibacterial activity against Salmonella typhimurium ATCC 25241 assessed as bacterial growth inhibition at 1 mg/mL preincubated for 30 mins at room temperature followed by incubation at 37 degreeC for 24 hrs by agar disc-diffusion method; format: functional, organism-based; conditions: Salmonella enterica subsp. enterica serovar Typhimurium, time 24.5 hrs
HCT-116 = assay: Cytotoxicity against human HCT-116 cells assessed as cell viability at 10 ug/mL incubated for 48 hrs by MTT assay; format: functional, cell-based; conditions: dose 10.0 µg/ml
HepG2 = assay: Cytotoxicity against human HepG2 cells assessed as cell viability at 10 ug/mL incubated for 48 hrs by MTT assay; format: functional, cell-based; conditions: dose 10.0 µg/ml
Acanthamoeba castellanii = assay: Antiamoebic activity against Acanthamoeba castellanii assessed as cell viability at 10 uM incubated for 24 hrs by Alamar blue staining based assay; format: functional, organism-based
Dictyostelium discoideum = assay: Antiamoebic activity against Dictyostelium discoideum assessed as cell viability at 10 uM incubated for 24 hrs by Alamar blue staining based assay; format: functional, organism-based
Escherichia coli = assay: Antibacterial activity against Escherichia coli ATCC 25922 assessed as bacterial growth inhibition at 1 mg/mL preincubated for 30 mins at room temperature followed by incubation at 37 degreeC for 24 hrs by agar disc-diffusion method; format: functional, organism-based; conditions: time 24.5 hrs

Measured: Activity

CC[C@H](C)C1NC(=O)[C@@H]2CCCN2C(=O)[C@H](Cc2ccc(OCC=C(C)C)cc2)NC(=O)[C@@H]2CCCN2C(=O)[C@H](C(C)C)NC(=O)CNC(=O)[C@H](C(C)C)NC(=O)CNC1=O (stereo partly specified) (cyclo(GVGVPY(Prenyl)P[ξIle]))
inactive: Acanthamoeba polyphaga | Candida albicans | Staphylococcus aureus | Bacillus subtilis | SH-SY5Y | Salmonella typhimurium | HCT-116 | HepG2 | Acanthamoeba castellanii | Dictyostelium discoideum | Escherichia coli
